Data reported in patent US20180140578A1, “METHODS AND COMPOSITIONS FOR THE DIAGNOSIS AND SELECTIVE TREATMENT OF CANCER” (Board of Regents of the University of Texas System, priority 2016, published 2018).

Assays:
[1] = advanced stage patients with solid tumors; monotherapy; cited from earlier work
[2] = test system: pre-mRNA splicing in HCT-116 cells; assay: RNA-seq analysis of splicing changes, parental HCT-116; assay type: cell-based, human; conditions: 2 μM indisulam
Excerpt: RNAs were extracted using Quick-RNA MiniPrep kit (Zymo Research). After cleaning up genomic DNA contaminant with Turbo DNase (Life Technologies) and rRNA depletion, strand-specific cDNA libraries were generated using the TruSeq Stranded mRNA Sample Prep Kit (IIlumina) and were subjected to high throughput sequencing using
HiSeq2500 platform (Illumina) with 100-bp single-end reads. NGS QC Toolkit (v2.3.1) (49) was used to check the sequencing quality, and high-quality reads were aligned by TopHat (v2.0.8) (50) to human reference genome (hg19) along with the gene annotation data downloaded from Illumina's iGenomes (support.illumina.com/sequencing/sequencing_software/igenome.ilmn). The insert-size metrics required in TopHat execution and the correctness of strand specificity were estimated by mapping reads to human transcript sequences using Bowtie (v2.1.0) (51) and Picard-tools (v1.99) (picard.sourceforge.net). The htseq-count script distributed with the HTSeq Python package (0.6.1) (pypi.python.org/pypi/HTSeq) was employed for counting reads in genes considering the coding strands. Source data for RNA sequencing data is available under NCBI SRA accession SRP096666.
For the stringent detection of differential skipped exons and retained introns, a custom program called SpliceFisher was developed and it is downloadable at github.com/jiwoongbio/SpliceFisher. Exonic and intronic regions were defined as annotated in the reference genome. To estimate differential exon skipping events, the numbers of exon-junction reads (panels a and b in FIG. 16) and exon-skipping reads (panel c in FIG. 16) observed in a sample were compared to the numbers observed in another sample. […] Additionally, the number of reads mapped to the target region (panel d in FIG. 16) and other exonic regions of the gene (panel e in FIG. 16) were also compared between samples. The read counts were evaluated by multiple Fisher's exact tests in three two-by-two tables using R and then the p-values were adjusted using FDR by each comparison type. Differential alternative splicing events were identified with all three adjusted p-values less than 0.01. The differential alternative splice sites and mutually exclusive exons were additionally detected by a similar method using the numbers of splicing reads supporting each junction.

[3] = target: T1, DDB1:DCAF15-GST and RBM39Δ150 (Homo sapiens, UniProt Q14498+Q66K64); assay: Indisulam dependent co-fractionation of DCAF15-DDB1 and RBM39 (size exclusion chromatography); assay type: binding; conditions: 10 μM indisulam
T1 construct: made in house; host or cells: Sf9 (baculovirus)
T1 sequence (Q66K64 whole entry, stated change not applied): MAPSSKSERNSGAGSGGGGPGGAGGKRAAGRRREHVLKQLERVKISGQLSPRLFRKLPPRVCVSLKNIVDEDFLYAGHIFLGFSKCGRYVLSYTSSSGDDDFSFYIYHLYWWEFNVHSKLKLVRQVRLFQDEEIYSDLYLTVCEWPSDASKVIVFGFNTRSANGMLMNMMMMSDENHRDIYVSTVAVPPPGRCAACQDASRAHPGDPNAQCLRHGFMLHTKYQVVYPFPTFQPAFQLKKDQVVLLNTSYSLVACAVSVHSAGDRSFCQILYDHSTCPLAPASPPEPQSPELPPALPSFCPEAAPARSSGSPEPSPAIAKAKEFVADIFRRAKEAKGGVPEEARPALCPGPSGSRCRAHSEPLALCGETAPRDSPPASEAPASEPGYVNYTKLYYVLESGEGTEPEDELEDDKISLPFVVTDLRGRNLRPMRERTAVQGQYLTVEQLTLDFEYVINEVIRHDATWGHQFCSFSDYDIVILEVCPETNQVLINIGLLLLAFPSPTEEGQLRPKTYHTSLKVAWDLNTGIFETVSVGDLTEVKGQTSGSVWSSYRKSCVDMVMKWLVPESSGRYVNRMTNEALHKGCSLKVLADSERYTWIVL
T1 sequence (Q14498 151-530 limits assumed, stated change not applied): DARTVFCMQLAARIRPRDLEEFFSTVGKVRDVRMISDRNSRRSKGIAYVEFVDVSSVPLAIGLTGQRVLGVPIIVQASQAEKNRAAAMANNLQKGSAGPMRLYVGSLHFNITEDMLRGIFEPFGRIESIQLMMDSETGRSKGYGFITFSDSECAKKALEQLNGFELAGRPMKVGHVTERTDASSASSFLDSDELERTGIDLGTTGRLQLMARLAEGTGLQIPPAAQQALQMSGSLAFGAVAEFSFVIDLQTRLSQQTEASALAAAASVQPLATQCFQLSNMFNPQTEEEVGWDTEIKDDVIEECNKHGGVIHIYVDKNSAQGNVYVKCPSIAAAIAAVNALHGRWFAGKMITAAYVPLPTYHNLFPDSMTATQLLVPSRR
T1 sequence (Q16531 whole entry partner): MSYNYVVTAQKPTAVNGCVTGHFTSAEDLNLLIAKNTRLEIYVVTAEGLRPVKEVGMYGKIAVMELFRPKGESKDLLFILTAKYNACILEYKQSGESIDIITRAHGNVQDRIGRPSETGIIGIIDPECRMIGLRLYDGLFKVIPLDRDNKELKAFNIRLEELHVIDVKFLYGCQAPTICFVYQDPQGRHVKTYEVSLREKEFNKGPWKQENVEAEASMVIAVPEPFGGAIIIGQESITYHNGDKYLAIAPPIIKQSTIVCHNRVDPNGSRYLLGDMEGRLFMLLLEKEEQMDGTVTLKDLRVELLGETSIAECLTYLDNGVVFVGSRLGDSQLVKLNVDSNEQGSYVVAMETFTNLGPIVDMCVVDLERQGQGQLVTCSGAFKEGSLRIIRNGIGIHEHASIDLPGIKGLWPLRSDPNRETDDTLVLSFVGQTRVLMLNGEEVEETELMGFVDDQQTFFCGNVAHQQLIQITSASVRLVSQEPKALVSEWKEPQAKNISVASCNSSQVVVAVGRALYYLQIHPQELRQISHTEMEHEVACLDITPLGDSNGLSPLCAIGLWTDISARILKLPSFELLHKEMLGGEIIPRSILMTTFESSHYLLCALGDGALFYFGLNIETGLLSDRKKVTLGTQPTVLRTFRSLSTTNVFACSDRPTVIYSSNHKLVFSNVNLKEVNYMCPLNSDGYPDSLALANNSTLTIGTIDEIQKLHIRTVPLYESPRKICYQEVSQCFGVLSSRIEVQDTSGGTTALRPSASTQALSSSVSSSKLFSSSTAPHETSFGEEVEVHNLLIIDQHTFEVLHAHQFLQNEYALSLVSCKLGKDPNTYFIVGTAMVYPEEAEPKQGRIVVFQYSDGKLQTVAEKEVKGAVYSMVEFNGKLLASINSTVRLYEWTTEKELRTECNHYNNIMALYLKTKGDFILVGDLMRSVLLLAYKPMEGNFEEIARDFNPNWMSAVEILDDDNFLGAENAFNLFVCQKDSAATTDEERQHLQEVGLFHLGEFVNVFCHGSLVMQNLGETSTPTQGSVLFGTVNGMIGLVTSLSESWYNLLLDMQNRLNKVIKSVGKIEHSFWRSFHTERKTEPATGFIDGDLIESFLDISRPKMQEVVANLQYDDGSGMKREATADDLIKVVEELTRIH
Protocol: RBM39 lacking the first 150 amino acids after the start codon (RBM39Δ150) was cloned into the pFastBac1 (Life Technologies) vector. Site-directed Mutagenesis of RBM39 was performed using Q5 site-directed mutagenesis kit (NEB). DCAF15-GST (C-terminal GST tag) and DDB1 were also cloned into pFastBac1. The production of baculovirus was carried out following vendor's instructions. Protein was expressed in SF9 cells by infection with each protein specific baculovirus, and cells were harvested 48 hr later and frozen in liquid nitrogen. For purification of RBM39Δ150, frozen cells were pulverized by cryomill and resuspended in lysis buffer (40 mM Tris, pH 7.5, 225 mM NaCl, 1× […] Protease inhibitor). The lysate was passed through a 22 gauge needle 2 times followed by ultracentrifugation at 25000 rpm for 30 min. Clarified lysate was incubated with Ni-NTA agarose (Qiagen) for 30 min with rotation at 4° C. Resin and bound protein were washed with wash buffer 1 (40 mM Tris, pH 7.5, 225 mM NaCl) followed by wash buffer 2 (40 mM Tris, pH 7.5, 20 mM imidazole, 225 mM NaCl). Proteins were eluted with elution buffer (40 mM Tris, pH 7.5, 300 mM imidazole, 225 mM NaCl) and concentrated to 0.5 ml. […]
The mixture was incubated for 1 hour with rotation at 4° C. […] 1 ml fractions were collected and analyzed by SDS-PAGE and coomassie blue staining.

[4] = target: T2, RBM39-3xFLAG (Homo sapiens, UniProt Q14498+Q66K64); assay: In vivo polyubiquitination of RBM39; assay type: cell-based; conditions: DCAF15 co-expressed; 293T cells
T2 construct: expressed in transfected cells; host or cells: 293T
Protocol: cDNAs encoding RBM39-3xFLAG, RBM39 G268V-3xFLAG, and DCAF15-V5 were cloned into the pCDNA3.1+vector. pCMV 8XHis Ub was a gift from William Kaelin (Dana Farber Cancer Institute). 0.4 million 293T cells were seeded per well on 6-well plates and allowed to attach overnight. 250 ng of pCMV 8XHis Ub, 500 ng of pCDNA3-DCAF15-V5, 10 ng of either pCDNA3-RBM39-3xFLAG or pCDNA3-RBM39 G268V-3xFLAG were transfected. […] Cells were lifted from the plates by pipetting, pelleted by centrifugation, and washed once with PBS. Purification of His-Ub tagged proteins was performed as described (5).

SMILES: NS(=O)(=O)c1ccc(S(=O)(=O)Nc2cccc3c(Cl)c[nH]c23)cc1 [Indisulam, indisulam]
- stable disease [1]: 17-36 % of patients
- exon skipping events ([2]; 6 hours): 327
- introns retained ([2]; 6 hours): 107
- exon skipping events ([2]; 12 hours): 837
- introns retained ([2]; 12 hours): 303
- elution of RBM39Δ150 with DDB1:DCAF15-GST peak [3]: co-elutes
- RBM39 ubiquitination [4]: increased RBM39 ubiquitination
